These results are taken from patent EP0193257A1, “Control of micro-organisms in water-containing compositions” (NIPA LABORATORIES, LTD., priority 1985, dated 1986).

Holding throughout (type): cell-based
For assay [1], the system named is Klebsiella oxytoca. Put plainly: Bactericidal effect in 27% sodium lauryl ether sulphate (challenge test). Here is the method:
(§1) Sodium lauryl ether sulphate (SLES) is a commonly used anionic detergent, a major active component of shampoos, foam baths and general purpose cleaners. The bactericidal activity of some compounds covered by the general formula given above was evaluated at final levels of 0.10% (w/w) and 0. 15% (w/w) in a 27% active solution of SLES (confirmed as containing no other preservatives). The activity of these compounds was evaluated in comparison with 0.30% methyl-4-hydroxybenzoate and an unpreserved control sample.
(§2) The test organisms were three species of resistant Gram negative bacteria which had previously been isolated from contaminated detergent products. 20g portions of test solutions were inoculated with 0.1 ml pure culture of the test bacteria and the time taken to achieve a total lethal effect against each species was determined by sub-culture at regular intervals into sterile dilution media (containing preservative inact ivators) and then into sterile Nutrient Broth, which was incubated for 4 days at 32°C to determine the presence or absence of surviving bacteria.

Assay [2] relates to Pseudomonas aeruginosa. The assay is described as above. As to the method: as §1, §2
The test system of assay [3] is Serratia marcescens. The assay is described as above. Here is the method:
as §1, §2

Assay [4] deals with Klebsiella oxytoca. Nature of the assay: Challenge test in Polysorbate 80 solutions. Here is the method:
(§3) Many antimicrobial preservatives are inactivated by polyalkoxylated nonionic emulsifiers which are widely used in emulsification of cosmetic, pharmaceutical and industrial emulsions. […] Normal use levels of Polysorbate 80 are 1-5%.
(§4) 3,5-Dibromo-4-hydroxybenzaldehyde was evaluated at 0.05%, 0.10% and 0.15% in 5% and 10% Polysorbate 80 solutions by a challenge test of the type described in Example 2.

The test system of assay [5] is Escherichia coli. Put plainly: Challenge test in Polysorbate 80 solutions. Here is the method: as §3, §4
Assay [6] deals with Pseudomonas putida. Nature of the assay: Challenge test in Polysorbate 80 solutions. Here is the method:
as §3, §4

For assay [7], the system named is Pseudomonas aeruginosa. Put plainly: Challenge test in Polysorbate 80 solutions. Here is the method: as §3, §4
Assay [8] relates to Serratia marcescens. Nature of the assay: Challenge test in Polysorbate 80 solutions. Here is the method: as §3, §4
The test system of the next assay is Candida albicans. Put plainly: Microbial challenge test in cosmetic cream. Here is the method:
(§5) Emulsions are susceptible to contamination and spoilage by-a wide range of micro-organisms. 3.5-Dibromo-4-hydroxybenzaldehyde (DBHB), as a non-limiting illustration of the invention, was evaluated in a typical cosmetic cream for microbiocidal efficacy. The cosmetic cream had the following formulation: […]
(§6) This cream was prepared by heating the oil and water phases to 70°C, mixing and stirring until cool. The DBHB was incorporated into the cream at final levels of 0.05%, 0.10% and 0.15% by dissolving into the emulsion components at the heating stage. A microbial challenge test was performed to determine the micro-biocidal activity of the test product. The following test organisms were inoculated in pure culture into portions of sterile cream samples and the time taken to achieve a total lethal effect was determined by regular sub-culture into recovery media (with preservative inactivators) which were incubated and observed for growth of survivors.

In assay [9] the test system is Escherichia coli. Put plainly: Microbial challenge test in cosmetic cream. As to the method: as §5, §6
Assay [10] deals with Pseudomonas putida. Nature of the assay: Microbial challenge test in cosmetic cream. As to the method:
as §5, §6

For assay [11], the system named is Pseudomonas aeruginosa. Nature of the assay: Microbial challenge test in cosmetic cream. As to the method: as §5, §6
The next assay concerns Pencicillium expansum. Nature of the assay: Microbial challenge test in cosmetic cream. As to the method:
as §5, §6

The subject of the next assay is Staphylococcus aureus. Nature of the assay: Microbial challenge test in cosmetic cream. Here is the method: as §5, §6
The subject of assay [12] is Serratia marcescens. Put plainly: Microbial challenge test in cosmetic cream. Here is the method: as §5, §6
The test system of assay [13] is mixed culture of 7 strains of Gram negative bacteria. Nature of the assay: Survivor plate count in shampoo formulation after challenge. Conditions: shampoo with 0.05% citric acid alone (Control 1). As to the method:
A shampoo formulation was prepared to the following formula: […]
Various additions were made to portions of this shampoo in sterile bottles under aseptic conditions, as follows: • 1. 0.20% of 30% DCHB in propylene glycol (0.06% active DCHB) • 2. 0.20% of 30% DCHB in propylene glycol + 0.05% citric acid • 3. 0.05% citric acid (control 1) • 4. No addition (control 2)
Each of these systems was inoculated with a mixed culture of 7 strains of Gram negative bacteria, at an initial inocullum level of 9.0x10^7 colony forming units per g. At 30 mins, 1 hour, 2 hours, 6 hours, 24 hours and 7 days after inoculation the total number of survivors in each sample portion were determined by serial dilution and plate counting; with the following results: […]

[14] abbreviates: 0.05%, Polysorbate 80 level 10%.
[15] abbreviates: 0.10%, Polysorbate 80 level 10%.
Setting [16] is: 0.15%, Polysorbate 80 level 10%.

As for `Cc1cc(C=O)cc(C)c1O` [3,5-Dimethyl-4-hydroxybenzaldehyde, 3,5,-Dimethyl-4-hydroxybenzaldehyde], the results for the “Time to achieve total lethal effect against: K oxytoca” value with Klebsiella oxytoca [1] (0.10% in 27% SLES) and with Klebsiella oxytoca [1] (0.15% in 27% SLES) were 3 h and under 1 h, respectively. In addition, the “Time to achieve total lethal effect against: P aeruginosa” value with Pseudomonas aeruginosa [2] (0.10% in 27% SLES) was 1 hour hours; in the assay on Pseudomonas aeruginosa [2] (0.15% in 27% SLES) it was under 1 h. Moreover, the “Time to achieve total lethal effect against: S marcescens” value was determined as 1 days in the assay on Serratia marcescens [3] (0.10% in 27% SLES) and 0.12 days in the assay on Serratia marcescens [3] (0.15% in 27% SLES).

As for `O=Cc1ccc(O)c(Cl)c1` [3-Chloro-4-hydroxybenzaldehyde], the “Time to achieve total lethal effect against: K oxytoca” value in the assay on Klebsiella oxytoca [1] (0.10% in 27% SLES) came to 6 h; in the assay on Klebsiella oxytoca [1] (0.15% in 27% SLES), 1 h. Further, the “Time to achieve total lethal effect against: P aeruginosa” value in the assay on Pseudomonas aeruginosa [2] (0.10% in 27% SLES) worked out at 3 h; in the assay on Pseudomonas aeruginosa [2] (0.15% in 27% SLES) it was 1 h. In addition, the “Time to achieve total lethal effect against: S marcescens” value was 1 days in the assay on Serratia marcescens [3] (0.10% in 27% SLES) and 0.25 days in the assay with Serratia marcescens [3] (0.15% in 27% SLES).

On to `O=Cc1cc(Br)c(O)c(Br)c1` [DBHB, 3,5-Dibromo-4-hydroxybenzaldehyde], for which the “Time taken to achieve total lethal effect against: K oxytoca” value is 6 h in the assay on Klebsiella oxytoca [4] (0.05%, Polysorbate 80 level 5%); 3 h with Klebsiella oxytoca [4] (setting [14]); 1 h in the assay on Klebsiella oxytoca [4] (0.10%, Polysorbate 80 level 5%); 1 h with Klebsiella oxytoca [4] (setting [15]); under 1 h in the assay on Klebsiella oxytoca [4] (0.15%, Polysorbate 80 level 5%); under 1 h in the assay on Klebsiella oxytoca [4] (setting [16]). For the same compound, the “Time taken to achieve total lethal effect against: E coli” value in the assay with Escherichia coli [5] (0.05%, Polysorbate 80 level 5%) is 6 h; with Escherichia coli [5] (setting [14]), 3 h; in the assay on Escherichia coli [5] (0.10%, Polysorbate 80 level 5%), under 1 h; in the assay with Escherichia coli [5] (setting [15]), 1 h; in the assay on Escherichia coli [5] (0.15%, Polysorbate 80 level 5%), under 1 h; in the assay with Escherichia coli [5] (setting [16]), under 1 h. The figures for the “Time taken to achieve total lethal effect against: E coli” value in the assay with Escherichia coli [9] (0.05% in cosmetic cream), in the assay on Escherichia coli [9] (0.10% in cosmetic cream) and in the assay with Escherichia coli [9] (0.15% in cosmetic cream) were 3 h, 3 h and under 1 h, respectively. Besides, the “Time taken to achieve total lethal effect against: P putida” value is 3 h with Pseudomonas putida [6] (0.05%, Polysorbate 80 level 5%); 1 h in the assay on Pseudomonas putida [6] (setting [14]); under 1 h in the assay on Pseudomonas putida [6] (0.10%, Polysorbate 80 level 5%); 1 h in the assay on Pseudomonas putida [6] (setting [15]); under 1 h in the assay with Pseudomonas putida [6] (0.15%, Polysorbate 80 level 5%); under 1 h with Pseudomonas putida [6] (setting [16]). Further, the “Time taken to achieve total lethal effect against: P putida” value in the assay on Pseudomonas putida [10] (0.05% in cosmetic cream) was 3 h; in the assay on Pseudomonas putida [10] (0.10% in cosmetic cream), under 1 h; with Pseudomonas putida [10] (0.15% in cosmetic cream), under 1 h. For the same compound, the “Time taken to achieve total lethal effect against: P aeruginosa” value in the assay on Pseudomonas aeruginosa [7] (0.05%, Polysorbate 80 level 5%) is 3 h; with Pseudomonas aeruginosa [7] (setting [14]) it was 24 h; with Pseudomonas aeruginosa [7] (0.10%, Polysorbate 80 level 5%), under 1 h; in the assay with Pseudomonas aeruginosa [7] (setting [15]), 3 h; in the assay with Pseudomonas aeruginosa [7] (0.15%, Polysorbate 80 level 5%), under 1 h; in the assay on Pseudomonas aeruginosa [7] (setting [16]) it was under 1 h. Besides, the entries for the “Time taken to achieve total lethal effect against: P aeruginosa” value in the assay with Pseudomonas aeruginosa [11] (0.05% in cosmetic cream), in the assay on Pseudomonas aeruginosa [11] (0.10% in cosmetic cream) and in the assay on Pseudomonas aeruginosa [11] (0.15% in cosmetic cream) were 3 h, 3 h and under 1 h, respectively. In addition, the “Time taken to achieve total lethal effect against: S marcescens” value in the assay on Serratia marcescens [8] (0.05%, Polysorbate 80 level 5%) worked out at 24 h; in the assay on Serratia marcescens [8] (setting [14]), 24 h; in the assay with Serratia marcescens [8] (0.10%, Polysorbate 80 level 5%), 1 h; in the assay on Serratia marcescens [8] (setting [15]), 3 h; with Serratia marcescens [8] (0.15%, Polysorbate 80 level 5%), 1 h; in the assay with Serratia marcescens [8] (setting [16]) it was 1 h. The “Time taken to achieve total lethal effect against: S marcescens” value with Serratia marcescens [12] (0.05% in cosmetic cream) is 3 h; with Serratia marcescens [12] (0.10% in cosmetic cream), 3 h; in the assay on Serratia marcescens [12] (0.15% in cosmetic cream) it was 1 h. The “Time to achieve total lethal effect against: K oxytoca” value in the assay on Klebsiella oxytoca [1] (0.10% in 27% SLES) was 3 h; in the assay with Klebsiella oxytoca [1] (0.15% in 27% SLES), under 1 h. Also, the “Time to achieve total lethal effect against: P aeruginosa” value is 1 hour hours in the assay with Pseudomonas aeruginosa [2] (0.10% in 27% SLES) and under 1 h in the assay with Pseudomonas aeruginosa [2] (0.15% in 27% SLES). Further, the “Time to achieve total lethal effect against: S marcescens” value with Serratia marcescens [3] (0.10% in 27% SLES) was 0.12 days; in the assay on Serratia marcescens [3] (0.15% in 27% SLES) it was under 1 hour hours. Besides, the “Time taken to achieve total lethal effect against: C albicans” value in the assay with Candida albicans (0.05% in cosmetic cream) is 3 h; in the assay on Candida albicans (0.10% in cosmetic cream), under 1 h; with Candida albicans (0.15% in cosmetic cream), under 1 h. The “Time taken to achieve total lethal effect against: Pen expansum” value with Pencicillium expansum (0.05% in cosmetic cream) turned out to be 4 days; in the assay with Pencicillium expansum (0.10% in cosmetic cream), 2 days; in the assay with Pencicillium expansum (0.15% in cosmetic cream) it was 1 days. In addition, the figures for the “Time taken to achieve total lethal effect against: S aureus” value with Staphylococcus aureus (0.05% in cosmetic cream), in the assay on Staphylococcus aureus (0.10% in cosmetic cream) and with Staphylococcus aureus (0.15% in cosmetic cream) were 1 h, under 1 h and under 1 h, respectively.

Regarding `COC(=O)c1ccc(O)cc1` [Methyl-4-hydroxybenzoate, reference compound], the “Time to achieve total lethal effect against: K oxytoca” value with Klebsiella oxytoca [1] (0.3% in 27% SLES) is 504 h. Besides, in the assay on Pseudomonas aeruginosa [2] (0.3% in 27% SLES), the “Time to achieve total lethal effect against: P aeruginosa” value turned out to be 336 h. For the same compound, the “Time to achieve total lethal effect against: S marcescens” value in the assay on Serratia marcescens [3] (0.3% in 27% SLES) is over 28 days.

Consider `O=C(O)CC(O)(CC(=O)O)C(=O)O` [citric acid, reference compound], for which, in [13], the “Mixed culture - colony forming units/g after: 30 mins” value is 9.0x10^7 colony forming units/g, the “Mixed culture - colony forming units/g after: 1 hour” value is reported as 3.5x10^7 colony forming units/g, the “Mixed culture - colony forming units/g after: 2 hours” value is reported as 6.5x10^7 colony forming units/g and the “Mixed culture - colony forming units/g after: 6 hours” value is >1x10^8 colony forming units/g. Also, in [13], the “Mixed culture - colony forming units/g after: 24 hours” value was >1x10^8 colony forming units/g and the “Mixed culture - colony forming units/g after: 7 days” value is >1x10^8 colony forming units/g.
